According to BindingDB's records for patent US8822500 (Chembridge, 2014):

Target: ALK tyrosine kinase receptor (Homo sapiens, UniProt Q9UM73)
Assay: In Vitro Kinase Activity Assay
Settings: pH 7.5

ALK tyrosine kinase receptor, sequence (Q9UM73 whole entry): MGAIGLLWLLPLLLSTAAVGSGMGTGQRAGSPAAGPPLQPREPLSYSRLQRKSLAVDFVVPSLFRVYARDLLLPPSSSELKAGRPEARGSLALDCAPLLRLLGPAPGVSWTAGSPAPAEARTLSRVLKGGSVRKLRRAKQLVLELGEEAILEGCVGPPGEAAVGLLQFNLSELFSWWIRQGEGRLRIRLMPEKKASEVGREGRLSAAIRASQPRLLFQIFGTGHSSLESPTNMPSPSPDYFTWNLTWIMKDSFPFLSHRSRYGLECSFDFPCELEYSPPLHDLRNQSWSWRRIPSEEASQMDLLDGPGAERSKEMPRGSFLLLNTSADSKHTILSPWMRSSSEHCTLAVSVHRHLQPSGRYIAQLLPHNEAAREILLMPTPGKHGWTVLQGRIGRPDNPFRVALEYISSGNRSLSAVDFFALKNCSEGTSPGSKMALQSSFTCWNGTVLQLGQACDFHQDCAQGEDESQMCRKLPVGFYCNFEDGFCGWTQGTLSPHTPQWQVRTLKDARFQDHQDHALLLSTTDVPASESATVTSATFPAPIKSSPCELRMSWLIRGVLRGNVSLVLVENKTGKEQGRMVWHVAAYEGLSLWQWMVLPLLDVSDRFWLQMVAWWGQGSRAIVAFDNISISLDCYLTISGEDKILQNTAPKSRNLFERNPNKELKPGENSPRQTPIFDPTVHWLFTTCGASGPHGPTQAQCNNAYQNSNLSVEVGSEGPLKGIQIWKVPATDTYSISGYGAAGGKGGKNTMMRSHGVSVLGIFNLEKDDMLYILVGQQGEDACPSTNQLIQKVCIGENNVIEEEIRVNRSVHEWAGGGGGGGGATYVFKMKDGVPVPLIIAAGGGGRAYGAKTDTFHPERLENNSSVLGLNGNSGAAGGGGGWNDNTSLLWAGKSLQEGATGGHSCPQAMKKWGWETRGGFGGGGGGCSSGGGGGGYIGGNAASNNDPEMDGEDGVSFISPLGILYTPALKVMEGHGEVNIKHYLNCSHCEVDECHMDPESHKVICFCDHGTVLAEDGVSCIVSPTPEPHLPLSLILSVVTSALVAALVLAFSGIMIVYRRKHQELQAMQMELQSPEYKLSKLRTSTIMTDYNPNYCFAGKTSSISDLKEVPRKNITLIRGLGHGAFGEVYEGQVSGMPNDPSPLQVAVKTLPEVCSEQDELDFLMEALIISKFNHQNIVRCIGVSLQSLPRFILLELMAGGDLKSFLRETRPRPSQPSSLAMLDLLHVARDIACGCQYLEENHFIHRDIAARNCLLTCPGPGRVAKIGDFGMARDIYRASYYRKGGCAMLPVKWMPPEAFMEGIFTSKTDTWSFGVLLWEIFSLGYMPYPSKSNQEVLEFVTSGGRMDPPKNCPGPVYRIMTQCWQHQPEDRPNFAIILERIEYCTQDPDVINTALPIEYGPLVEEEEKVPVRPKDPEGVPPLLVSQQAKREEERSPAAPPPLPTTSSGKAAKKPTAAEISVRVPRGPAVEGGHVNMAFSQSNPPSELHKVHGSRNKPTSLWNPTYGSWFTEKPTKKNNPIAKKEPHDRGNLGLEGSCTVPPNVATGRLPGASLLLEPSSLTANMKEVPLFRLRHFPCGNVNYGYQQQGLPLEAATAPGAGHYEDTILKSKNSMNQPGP

IC50: 0.0151 µM
SMILES: CC(Cc1cc(F)ccc1F)Nc1cc[nH]c(=O)c1-c1nc2cc3c(cc2[nH]1)C(=O)N(C1CCN(C)CC1)C3=O (stereo unspecified) [US8822500, [28]]
